The results in this text go back to patent publication US6706664B1, “Benzoxazole compounds, process for the preparation thereof and herbicides” (UBE Industries, Ltd., priority 1999, dated 2004).

Common to all, as to parameters: key: 0: normal development; 1: Less damaged; 2: Slightly damaged; 3: Moderately damaged; 4: Severely damaged; 5: All killed
The subject of one test is monochoria. The test can be described thus: Herbicidal test for paddy field. The class given is in vivo, Monochoria vaginalis. To be noted: paddy field pot, 500 g/ha dropwise at 1.5 leaf stage of barnyardgrass, 3 weeks, rank vs non-treated. The method, boiled down: (§1)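 Under flooded conditions (3 cm water over Ube soil), each compound was delivered by pipet as a diluted wettable powder (0.05% surfactant) at 500 g/ha, timed to 1.5-leaf barnyardgrass. Plants stayed 3 weeks in a 25° C glasshouse before injury was graded from 0 (normal) to 5 (all killed).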

The test system of another test is flat sedge. The test can be described thus: Herbicidal test for paddy field. The class given is in vivo, Cyperus serotinus. To be noted: paddy field pot, 500 g/ha dropwise at 1.5 leaf stage of barnyardgrass, 3 weeks, rank vs non-treated. The method, then:
Wagner pots, each having an area of 1/5000 are, were packed with Ube soil (alluvial soil) and planted with seeds or tubers of young rice plant, barnyardgrass, bulrush, flat sedge and monochoria. Then, the pots were filled with water to a depth of 3 cm.
Each wettable powder of the desired compounds (I) shown in Table 1 prepared in accordance with Example 2 was diluted with water containing a surfactant (0.05%) and subjected to dropwise addition treatment by using pipet so that an effective concentration of the compound (I) in each herbicide became 500 g/ha at 1.5 leaf stage of barnyardgrass.
These plants were controlled in a glass house at an average temperature of 25° C. for 3 weeks, and then herbicidal effects thereof were investigated.
The herbicidal effects are evaluated according to the following 6 ranks as compared with non-treated district.
(§2) (0: normal development, 1: Less damaged, 2: Slightly damaged, 3: Moderately damaged, 4: Severely damaged, 5: All killed).

A further test concerns young rice plant. The test can be described thus: Herbicidal test for paddy field. The class given is in vivo. The following applies: paddy field pot, 500 g/ha dropwise at 1.5 leaf stage of barnyardgrass, 3 weeks, rank vs non-treated. An outline of the steps: as §1
Test [1] relates to barnyardgrass. Briefly: Herbicidal test for paddy field. The class given is in vivo, Echinochloa crusgalli. To be noted: paddy field pot, 500 g/ha dropwise at 1.5 leaf stage of barnyardgrass, 3 weeks, rank vs non-treated. An outline of the steps: as §1
A further test relates to bulrush. Briefly: Herbicidal test for paddy field. The following applies: paddy field pot, 500 g/ha dropwise at 1.5 leaf stage of barnyardgrass, 3 weeks, rank vs non-treated. The class given is in vivo, Scrips juncoides. An outline of the steps:
as §1

The subject of test [2] is velvetleaf. Briefly: Soil treatment test for upland field. The class given is in vivo, Abutilon theophrasti. The following applies: 500 g/ha, glass house 25° C., 3 weeks. The method, boiled down: (§3)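 Visual 0–5 damage rating recorded 3 weeks after a pre-emergence soil spray of 500 g/ha on seeded Ube alluvial soil, with plants held in a glasshouse near 25° C.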
In test [3] the test system is livid amaranth. Briefly: Foliar spread test for upland field. The class given is in vivo, Amaranthus lividus. To be noted: foliar spray 500 ppm, 3 weeks, rank vs non-treated. The method, boiled down: (§4)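 Two-week-old glasshouse seedlings on volcanic ash soil were treated by foliar spray at 500 ppm, with 0.5% surfactant in the diluent. Effects were graded visually after three weeks, from 0 for no injury to 5 for complete kill.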

Test [4] relates to green foxtail. The test can be described thus: Soil treatment test for upland field. To be noted: 500 g/ha, glass house 25° C., 3 weeks. The class given is in vivo, Setaria viridis. An outline of the steps: as §3
Test [5] deals with corn. The test can be described thus: Soil treatment test for upland field. The class given is in vivo. The following applies: 500 g/ha, glass house 25° C., 3 weeks. The method, boiled down: as §3
Test [6] relates to wheat. Briefly: Soil treatment test for upland field. To be noted: 500 g/ha, glass house 25° C., 3 weeks. The class given is in vivo. The method, boiled down:
as §3

In test [7] the test system is solgum. Briefly: Soil treatment test for upland field. The class given is in vivo. To be noted: 500 g/ha, glass house 25° C., 3 weeks. An outline of the steps: as §3
Test [8] has as its system sugar beat. The test can be described thus: Soil treatment test for upland field. The class given is in vivo. The following applies: 500 g/ha, glass house 25° C., 3 weeks. An outline of the steps: as §3
Test [9] concerns cotton. Briefly: Soil treatment test for upland field. The class given is in vivo. The following applies: 500 g/ha, glass house 25° C., 3 weeks. An outline of the steps:
as §3

The test system of test [10] is soybean. Briefly: Soil treatment test for upland field. The class given is in vivo. The following applies: 500 g/ha, glass house 25° C., 3 weeks. The method, boiled down:
as §3

Test [11] concerns blackgrass. Briefly: Soil treatment test for upland field. The class given is in vivo, Alopecurus aegualis. The following applies: 500 g/ha, glass house 25° C., 3 weeks. The method, boiled down:
as §3

For test [12], the system named is barnyardgrass. The test can be described thus: Foliar spread test for upland field. The class given is in vivo, Echinochloa crusgalli. The following applies: foliar spray 500 ppm, 3 weeks, rank vs non-treated.
Source text: as §2
Wagner pots, each having an area of 1/5000 are, were packed with volcanic ash soil and then each seed of corn, soybean, cotton, wheat, solgum, sugar beat, Large crabgrass, barnyardgrass, green foxtail, blackgrass, annual bluegrass, common lambsquartes, livid amaranth, velvetleaf and morning glory was planted, covered with soil and grown in a glass house at an average temperature of […] for about 2 weeks.
Each wettable powder of the desired compounds (I) shown in Table 1 prepared in accordance with Example 2 was diluted to 500 ppm with water containing a surfactant (0.5%) and then uniformly sprayed on the above respective plants.
After these plants were controlled in a glass house at an average temperature of 25° C. for 3 weeks, the herbicidal effects thereof were investigated.
The herbicidal effects were evaluated according to the evaluation method described in the above (1).

Test [13] relates to barnyardgrass. The test can be described thus: Soil treatment test for upland field. The class given is in vivo, Echinochloa crusgalli. The following applies: 500 g/ha, glass house 25° C., 3 weeks. The method, boiled down:
as §3

In another test the test system is morning glory. Briefly: Foliar spread test for upland field. The following applies: foliar spray 500 ppm, 3 weeks, rank vs non-treated. The class given is in vivo, Ipomoea spps. An outline of the steps: as §4
For test [14], the system named is blackgrass. The test can be described thus: Foliar spread test for upland field. The class given is in vivo, Alopecurus aegualis. To be noted: foliar spray 500 ppm, 3 weeks, rank vs non-treated. An outline of the steps:
as §4

In test [15] the test system is Large crabgrass. The test can be described thus: Foliar spread test for upland field. The class given is in vivo, Digitaria adscendens. The following applies: foliar spray 500 ppm, 3 weeks, rank vs non-treated. The method, boiled down: as §4
For test [16], the system named is corn. The test can be described thus: Foliar spread test for upland field. The class given is in vivo. To be noted: foliar spray 500 ppm, 3 weeks, rank vs non-treated. An outline of the steps: (§5)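 Post-emergence foliar spray, 500 ppm (wettable powder in water + 0.5% surfactant), on ~2-week-old plants grown in volcanic ash soil; glasshouse, avg 25° C, 3 wk; visual damage score 0–5.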

For test [17], the system named is wheat. Briefly: Foliar spread test for upland field. The class given is in vivo. To be noted: foliar spray 500 ppm, 3 weeks, rank vs non-treated. The method, boiled down: as §5
The test system of test [18] is solgum. The test can be described thus: Foliar spread test for upland field. To be noted: foliar spray 500 ppm, 3 weeks, rank vs non-treated. The class given is in vivo. An outline of the steps:
as §5

The subject of test [19] is sugar beat. The test can be described thus: Foliar spread test for upland field. The following applies: foliar spray 500 ppm, 3 weeks, rank vs non-treated. The class given is in vivo. The method, boiled down:
as §5

In test [20] the test system is cotton. Briefly: Foliar spread test for upland field. The class given is in vivo. To be noted: foliar spray 500 ppm, 3 weeks, rank vs non-treated. The method, boiled down: as §5
Test [21] concerns soybean. Briefly: Foliar spread test for upland field. The class given is in vivo. To be noted: foliar spray 500 ppm, 3 weeks, rank vs non-treated. An outline of the steps:
as §5

Test [22] deals with velvetleaf. The test can be described thus: Foliar spread test for upland field. The class given is in vivo, Abutilon theophrasti. To be noted: foliar spray 500 ppm, 3 weeks, rank vs non-treated. The method, boiled down:
as §4

Test [23] has as its system Large crabgrass. The test can be described thus: Soil treatment test for upland field. The class given is in vivo, Digitaria adscendens. The following applies: 500 g/ha, glass house 25° C., 3 weeks. An outline of the steps: as §3
Test [24] relates to green foxtail. Briefly: Foliar spread test for upland field. The class given is in vivo, Setaria viridis. The following applies: foliar spray 500 ppm, 3 weeks, rank vs non-treated. The method, boiled down: as §4
Test [25] deals with livid amaranth. The test can be described thus: Soil treatment test for upland field. The class given is in vivo, Amaranthus lividus. The following applies: 500 g/ha, glass house 25° C., 3 weeks. An outline of the steps: as §3
Test [26] deals with common lambsquartes. The test can be described thus: Foliar spread test for upland field. The class given is in vivo, Chenopodium album. The following applies: foliar spray 500 ppm, 3 weeks, rank vs non-treated. The method, boiled down:
as §4

The test system of test [27] is common lambsquartes. The test can be described thus: Soil treatment test for upland field. The class given is in vivo, Chenopodium album. To be noted: 500 g/ha, glass house 25° C., 3 weeks. The method, boiled down: as §3
Test [28] has as its system annual bluegrass. Briefly: Soil treatment test for upland field. The class given is in vivo, Poa annua. The following applies: 500 g/ha, glass house 25° C., 3 weeks. An outline of the steps:
as §3

The test system of test [29] is annual bluegrass. Briefly: Foliar spread test for upland field. The following applies: foliar spray 500 ppm, 3 weeks, rank vs non-treated. The class given is in vivo, Poa annua. An outline of the steps:
as §4

For `CCC(Oc1ccc(F)c(C(F)(F)F)c1)c1nc2cc(C#N)c(F)cc2o1` (centres unmarked) [Compound 346], in the test with monochoria, the “Effect Monochoria” value is 5. Also, the “Effect Flat sedge” value in the test on flat sedge is listed as 5. Also, the “Effect Young rice plant” value in the test on young rice plant turned out to be 2. Moreover, in the test on barnyardgrass [1], the “Effect Barnyardgrass” value was 5. The “Effect Bulrush” value in the test on bulrush is 5.
With `CCCC(Oc1ccc(F)c(C(F)(F)F)c1)c1nc2cc(F)c(F)cc2o1` (centres unmarked) [Compound 286], the “Effect Monochoria” value with monochoria was 5. Further, in the test on flat sedge, the “Effect Flat sedge” value came out at 3. Further, the “Effect Young rice plant” value with young rice plant is 3. The “Effect Barnyardgrass” value in the test with barnyardgrass [1] was 4. In the test with bulrush, the “Effect Bulrush” value is listed as 5.
With `CCC(Oc1cccc(OC(F)(F)F)c1)c1nc2cc(Cl)ccc2o1` (centres unmarked) [Compound 447], the “Effects Velvetleaf” value in the test on velvetleaf [2] and with velvetleaf [22] was 2 in each case. Further, the “Effects Livid amaranth” value in the test on livid amaranth [3] and in the test on livid amaranth [25] was 5 in each case. Further, the “Effects Green foxtail” value is listed as 5 in the test with green foxtail [4] and 2 in the test with green foxtail [24]. The “Effects Corn” value in the test with corn [5] is reported as 2; with corn [16] it was 3. Also, the “Effects Wheat” value came to 1 with wheat [6] and 2 with wheat [17]. Further, the “Effects Solgum” value in the test on solgum [7] is given as 1; with solgum [18] it was 3. For the same compound, the “Effects Sugar beat” value in the test with sugar beat [8] and with sugar beat [19] was 5 each time. Further, the “Effects Cotton” value in the test on cotton [9] is listed as 0; in the test on cotton [20], 4. Further, the “Effects Soybean” value in the test on soybean [10] is 0; in the test with soybean [21] it was 5. In addition, the “Effects Blackgrass” value is reported as 5 with blackgrass [11] and 2 with blackgrass [14]. The “Effects Barnyardgrass” value in the test with barnyardgrass [12] is on record as 1; in the test on barnyardgrass [13], 4. The “Effects Morning glory” value in the test with morning glory turned out to be 5. Also, the “Effects Large crabgrass” value was determined as 3 in the test on Large crabgrass [15] and 5 in the test with Large crabgrass [23]. Moreover, the entries for the “Effects Common lambsquarters” value with common lambsquartes [26] and in the test with common lambsquartes [27] were 5 and 3, respectively. For the same compound, the “Effects Annual bluegrass” value in the test on annual bluegrass [28] was found to be 5; in the test on annual bluegrass [29], 2.
`CCC(Oc1ccc(F)c(C(F)(F)F)c1)c1nc2ccc(C(F)(F)F)cc2o1` (centres unmarked) [Compound 93]: the “Effects Velvetleaf” value in the test with velvetleaf [2] and in the test with velvetleaf [22] was 2 throughout. In addition, the entries for the “Effects Livid amaranth” value in the test on livid amaranth [3] and in the test with livid amaranth [25] were 4 and 5, respectively. In addition, the figures for the “Effects Green foxtail” value with green foxtail [4] and with green foxtail [24] were 5 and 3, respectively. Besides, the “Effects Corn” value came to 1 in the test with corn [5] and 2 in the test with corn [16]. Further, the “Effects Wheat” value in the test with wheat [6] was 0; in the test with wheat [17], 2. For the same compound, the “Effects Solgum” value in the test on solgum [7] and in the test with solgum [18] was 1 throughout. In addition, the “Effects Sugar beat” value with sugar beat [8] is listed as 5; with sugar beat [19], 4. Besides, the “Effects Cotton” value with cotton [9] is recorded as 1; with cotton [20], 3. For the same compound, the entries for the “Effects Soybean” value in the test with soybean [10] and in the test on soybean [21] were 2 and 4, respectively. Moreover, the “Effects Blackgrass” value was found to be 3 in the test on blackgrass [11] and 1 with blackgrass [14]. Besides, the “Effects Barnyardgrass” value in the test with barnyardgrass [12] worked out at 2; in the test on barnyardgrass [13] it was 4. Besides, in the test on morning glory, the “Effects Morning glory” value is 3. In addition, the “Effects Large crabgrass” value in the test on Large crabgrass [15] is reported as 3; with Large crabgrass [23], 5. The “Effects Common lambsquarters” value stood at 4 in the test on common lambsquartes [26] and 3 with common lambsquartes [27]. Besides, the figures for the “Effects Annual bluegrass” value in the test with annual bluegrass [28] and in the test on annual bluegrass [29] were 5 and 1, respectively.
